The test system of assay [1] is multidrug-resistant tumors. As to conditions: reported previously; cited from earlier work.
In assay [2] the test system is CHO^R cells (vinblastine (VBL) resistant tumor cell line). The experiment in a line: Reversal of multidrug resistance (MDR) in CHO^R cells: cell growth with test compound with or without vinblastine (VLB). As to conditions: 72 hr. It is filed as cell-based. How it is done:
CHO^R cells were plated at a density of 1X105/35mm dish and were allowed to grow overight at 37° C. in a CO2 incubator. The medium was replaced with medium containing the compounds and vinblastine (0.2 μg/ml). The cells were allowed to grow for further 72 hr and the cell number was determined by Coulter counter after trypsiunization.

This is an account of results in patent US5190957A, “Treatment of multi-drug resistant tumors with quinolyl-and isoquinolyloxazole-2-ones” (Merrell Dow Pharmaceuticals Inc., priority 1992, dated 1993).

Read-outs that look alike come from different tables or passages of the source.

`C=C[C@H]1C[N@@]2CC[C@H]1C[C@@H]2[C@@H](O)c1ccnc2ccc(OC)cc12` [Quinidine]: in assay [1], the “reversal of drug resistance in multidrug-resistant tumors” value (“reversal of drug resistance” for short) is “reverse drug resistance”.
For `CC[C@]1(O)C[C@@H]2CN(CCc3c([nH]c4ccccc34)[C@@](C(=O)OC)(c3cc4c(cc3OC)N(C)[C@H]3[C@@](O)(C(=O)OC)[C@H](OC(C)=O)[C@]5(CC)C=CCN6CC[C@]43[C@@H]65)C2)C1` [VLB, vinblastine, reference compound], in assay [2] (VLB alone, 0.2 μg/ml), the “effect on cell growth of VLB alone” value was “did not have any effect on cell growth”.
With `COc1ccc(CCN(C)CCCC(C#N)(c2ccc(OC)c(OC)c2)C(C)C)cc1OC` (stereo not shown) [verapamil], the “reversal of drug resistance” value in assay [1] is given as “reverse drug resistance”.
For the molecule `COC(=O)[C@H]1[C@H]2C[C@@H]3c4[nH]c5cc(OC)ccc5c4CCN3C[C@H]2C[C@@H](OC(=O)c2cc(OC)c(OC)c(OC)c2)[C@@H]1OC` [reserpine], in assay [1], the “reversal of drug resistance” value is recorded as “reverse drug resistance”.
With `COc1ccc([C@@H]2Sc3ccccc3N(CCN(C)C)C(=O)[C@@H]2OC(C)=O)cc1` [diltiazem], in assay [1], the “reversal of drug resistance” value was “reverse drug resistance”.
Broadly, the inhibition is how much of the control response was suppressed. In the case of `CCCc1[nH]c(=O)oc1-c1ccnc2ccccc12` [4-PROPYL-5-(4-QUINOLINYL)-2(3H)-OXAZOLONE], the inhibition at 0.1 µg/mL in assay [2] (0.1 μg/ml compound + vinblastine 0.2 μg/ml, read-out: % Inhibition of Cell Growth, Compound + VLB) is 4%; in assay [2] (0.1 μg/ml compound, no VLB, read-out: % Inhibition of Cell Growth, Compound Only), 0%. For the same molecule, the inhibition at 1 µg/mL was 43% in assay [2] (1 μg/ml compound + vinblastine 0.2 μg/ml, read-out: % Inhibition of Cell Growth, Compound + VLB) and 0% in assay [2] (1 μg/ml compound, no VLB, read-out: % Inhibition of Cell Growth, Compound Only). The inhibition at 5 µg/mL is 93% in assay [2] (5 μg/ml compound + vinblastine 0.2 μg/ml, read-out: % Inhibition of Cell Growth, Compound + VLB) and 0% in assay [2] (5 μg/ml compound, no VLB, read-out: % Inhibition of Cell Growth, Compound Only). The inhibition at 10 µg/mL in assay [2] (10 μg/ml compound + vinblastine 0.2 μg/ml, read-out: % Inhibition of Cell Growth, Compound + VLB) stood at 93%; in assay [2] (10 μg/ml compound, no VLB, read-out: % Inhibition of Cell Growth, Compound Only), 14%.
